Here are results for eleven molecules from PubChem BioAssay (NCI).

Among the test systems are SNB-19 CNS; M14 melanoma; COLO 205 colon; HCT-15 colon; HOP-92 NSCLC; ACHN renal; NCI-H23 lung.
Holding throughout (test): NCI tumour cell line growth inhibition, 48 h

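In this assay, cells in 96-well plates receive the compound at five concentrations for 48 hours. Endpoints are linearly interpolated between the surrounding concentrations. Abbreviation: GI50, concentration required for 50% inhibition of growth. TGI denotes the concentration required for complete inhibition of growth.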

`Cc1ccc(-c2nc([P+](c3ccccc3)(c3ccccc3)c3ccccc3)c(S(=O)(=O)c3ccc(C)cc3)o2)cc1`: the GI50 is 1.64 µM in the test on SNB-19 CNS; 1.51 µM in the test on M14 melanoma; 1.71 µM in the test with COLO 205 colon; 1.44 µM in the test with HCT-15 colon; 1.43 µM in the test with HOP-92 NSCLC; 1.46 µM with ACHN renal. The GI50 with NCI-H23 lung was 1.68 µM. Besides, the TGI with SNB-19 CNS stood at 3.3 µM; in the test with M14 melanoma it was 3.27 µM; with COLO 205 colon, 4.28 µM; in the test with HCT-15 colon, 3.23 µM; in the test with HOP-92 NSCLC it was 3.13 µM; with ACHN renal, 2.78 µM. The molecule also returned a TGI with NCI-H23 lung of 3.5 µM.

Regarding `Cc1cc[n+]2c(c1)-c1cc(C)cc[n+]1CC2`, the TGI is more than 100 µM in the test on SNB-19 CNS; more than 100 µM with M14 melanoma; more than 86.1 µM in the test on COLO 205 colon; more than 100 µM in the test with HCT-15 colon; more than 100 µM in the test on HOP-92 NSCLC; more than 100 µM with ACHN renal. Besides, in the test with NCI-H23 lung, the TGI was more than 100 µM.

Consider `O=C(O)c1cccc(C(=O)O)c1S(=O)Cc1ccccc1` (stereo not drawn), for which the TGI in the test with SNB-19 CNS, in the test on M14 melanoma, in the test on COLO 205 colon, in the test with HCT-15 colon, with HOP-92 NSCLC and with ACHN renal was more than 100 µM throughout. In the test with NCI-H23 lung, this molecule gave a TGI of more than 100 µM.

For the molecule `C[C@]12CC[C@@H]3c4cc(OC(F)F)c(OS(N)(=O)=O)cc4CC[C@H]3[C@@H]1CC[C@@H]2O`, the GI50 in the test with SNB-19 CNS was 0.532 µM; with M14 melanoma, 0.343 µM; with COLO 205 colon, 0.653 µM; in the test on HCT-15 colon, 0.406 µM; in the test with HOP-92 NSCLC it was 1.64 µM; with ACHN renal, 0.65 µM. The GI50 in the test on NCI-H23 lung was 0.621 µM. Besides, the TGI was 25.6 µM in the test on SNB-19 CNS; 14.6 µM in the test on M14 melanoma; 13.9 µM with COLO 205 colon; 13.6 µM in the test on HCT-15 colon; 28.6 µM in the test on HOP-92 NSCLC; 49.1 µM in the test on ACHN renal. The molecule further gave a TGI in the test on NCI-H23 lung of 20.1 µM.

Consider `Oc1ccc(C(c2ccc(O)cc2)c2ccc(Br)cn2)cc1`, for which the GI50 with SNB-19 CNS is 16.1 µM; with M14 melanoma it was 14.5 µM; with COLO 205 colon, 0.308 µM; with HCT-15 colon it was 0.425 µM; in the test on HOP-92 NSCLC, 0.25 µM; in the test with ACHN renal it was 0.45 µM. The GI50 with NCI-H23 lung was 0.267 µM. The TGI in the test with SNB-19 CNS was more than 100 µM; in the test with M14 melanoma, 47.4 µM; in the test with COLO 205 colon it was 3.44 µM; in the test with HCT-15 colon, 16.9 µM; with HOP-92 NSCLC, 1.44 µM; in the test on ACHN renal, 14.5 µM. In the test with NCI-H23 lung, this molecule displayed a TGI of 0.772 µM.

In the case of `Cc1cc(C)nc(SC2=C(Nc3cc(Cl)ccc3O)C(=O)N(Cc3ccccc3)C2=O)n1`, the GI50 in the test with SNB-19 CNS is more than 160 µM; in the test on M14 melanoma it was 48.4 µM; with COLO 205 colon it was 36.4 µM; in the test on HCT-15 colon, 23.5 µM; in the test on HOP-92 NSCLC it was 21.9 µM; in the test on ACHN renal, 43.5 µM. In the test on NCI-H23 lung, the GI50 was 113 µM. The TGI in the test on SNB-19 CNS was more than 160 µM; in the test on M14 melanoma, more than 160 µM; with COLO 205 colon, 90.7 µM; in the test on HCT-15 colon it was 78.4 µM; in the test with HOP-92 NSCLC, 68.5 µM; in the test on ACHN renal, more than 160 µM. This molecule also came in with a TGI in the test on NCI-H23 lung of more than 160 µM.

As to `COC(=O)CCCCC(=O)c1c(C)[nH]c(/C=C2\N=C(c3ccc[nH]3)C=C2OC)c1C`, the GI50 was 1.53 µM in the test on SNB-19 CNS; 0.289 µM with M14 melanoma; 1.64 µM with COLO 205 colon; 0.359 µM in the test on HCT-15 colon; 0.414 µM with HOP-92 NSCLC; 1 µM in the test on ACHN renal. The GI50 in the test with NCI-H23 lung is 1.46 µM. In addition, the TGI came out at 3.16 µM in the test with SNB-19 CNS; 0.952 µM in the test on M14 melanoma; 3.29 µM in the test with COLO 205 colon; 1.4 µM in the test on HCT-15 colon; 1.5 µM in the test on HOP-92 NSCLC; 2.32 µM with ACHN renal. In the test with NCI-H23 lung, the TGI was 3.6 µM.

As to `COc1ccc(N(CC(=O)NCCC[Te]c2ccccc2)C(=O)CNC(=O)OC(C)(C)C)cc1`, the GI50 in the test with SNB-19 CNS is 0.875 µM; with M14 melanoma, 3.53 µM; in the test with COLO 205 colon it was 2.01 µM; with HCT-15 colon, 3.15 µM; in the test with HOP-92 NSCLC it was 2.36 µM; in the test on ACHN renal, 3.12 µM. In the test on NCI-H23 lung, the GI50 was 2.5 µM. Also, the TGI turned out to be 9.64 µM in the test on SNB-19 CNS; 10.6 µM in the test with M14 melanoma; 3.83 µM in the test on COLO 205 colon; 11.7 µM in the test on HCT-15 colon; 4.94 µM in the test on HOP-92 NSCLC; 8.86 µM in the test on ACHN renal. In the test with NCI-H23 lung, this molecule registered a TGI of 6.61 µM.

Consider `CC(C)(O)CNc1nc(Nc2ccnc(C(F)(F)F)c2)nc(-c2cccc(C(F)(F)F)n2)n1`, for which the GI50 was 34.4 µM in the test with SNB-19 CNS; 16.1 µM with M14 melanoma; 18.4 µM with COLO 205 colon; 19.7 µM with HCT-15 colon; 23.4 µM in the test on HOP-92 NSCLC; 23.5 µM in the test with ACHN renal. For the same molecule, the GI50 in the test on NCI-H23 lung was 18.1 µM. The TGI was more than 100 µM in the test with SNB-19 CNS; 34.6 µM with M14 melanoma; 38.7 µM with COLO 205 colon; 79.8 µM in the test on HCT-15 colon; 74.2 µM in the test with HOP-92 NSCLC; 66.7 µM with ACHN renal. Besides, the TGI with NCI-H23 lung amounted to 42.8 µM.

`c1ccc(CCc2cccnc2)nc1`: the TGI with SNB-19 CNS, with M14 melanoma, in the test with COLO 205 colon, with HCT-15 colon, with HOP-92 NSCLC and with ACHN renal was more than 100 µM throughout. This molecule also displayed a TGI in the test on NCI-H23 lung of more than 100 µM.

As for `Oc1cccc2ccc(N/N=C/c3cc(CN4CCOCC4)c(O)c4ncccc34)nc12`, the GI50 was 0.0169 µM in the test with SNB-19 CNS; 0.0392 µM in the test with M14 melanoma; 0.117 µM in the test on COLO 205 colon; less than 0.0104 µM with HCT-15 colon; 0.0212 µM with HOP-92 NSCLC; less than 0.0119 µM with ACHN renal. Moreover, the GI50 in the test on NCI-H23 lung was 0.0327 µM. The TGI in the test on SNB-19 CNS turned out to be 12.6 µM; in the test with M14 melanoma, 1.58 µM; with COLO 205 colon, 1.6 µM; in the test with HCT-15 colon, 1.78 µM; in the test with HOP-92 NSCLC, 0.0678 µM; in the test on ACHN renal it was 1.47 µM. The molecule also yielded a TGI in the test on NCI-H23 lung of 1.73 µM.
